Entries after “also recorded” stand apart in the source; their conditions may differ.
What was measured:
EUFA423F HA cells = assay: CellTiter-Glo cell viability, BRCA2-complemented cells; assay type: cell-based, human; settings: high concentrations (Z56: 250 μM)
[1] = Solubility in cell culture medium; assay type: physicochemical; settings: plasma or biological fluid
RPA-ssDNA-RAD52 complex = molecular target: T1, RPA-ssDNA-RAD52 complex (Homo sapiens, UniProt P43351); assay: FRET-based inhibition of the RPA-ssDNA-RAD52 complex; assay type: binding; settings: for effect on the RPA-ssDNA-RAD52 complex: FRET titration
T1 construct: 6xHis; made in house
T1 sequence (P43351 1-418): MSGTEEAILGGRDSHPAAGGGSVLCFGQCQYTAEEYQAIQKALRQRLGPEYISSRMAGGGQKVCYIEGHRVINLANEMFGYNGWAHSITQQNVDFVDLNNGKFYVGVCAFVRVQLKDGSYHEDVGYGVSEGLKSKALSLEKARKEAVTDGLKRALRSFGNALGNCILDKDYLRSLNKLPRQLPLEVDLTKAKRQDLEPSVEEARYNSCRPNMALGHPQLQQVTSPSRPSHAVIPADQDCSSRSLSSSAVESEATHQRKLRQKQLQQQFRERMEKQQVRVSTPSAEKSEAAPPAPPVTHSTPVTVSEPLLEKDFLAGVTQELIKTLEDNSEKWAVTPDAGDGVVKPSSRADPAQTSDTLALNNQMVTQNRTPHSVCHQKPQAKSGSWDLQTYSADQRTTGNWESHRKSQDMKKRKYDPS
Procedure: Proteins: The 6×His-tagged human RAD52 proteins (wild type and mutants) and untagged human RPA were expressed and purified as previously described in (Hengel S R, eLife. 2016; 5; Grimme J M, et al., Nucleic Acids Res. 2010; 38(9):2917-30; and Henricksen L A, et al., The Journal of biological chemistry. 1994; 269(15):11121-32). RPA and RAD52 protein concentrations were determined by measuring absorbance at 280 nm using extinction coefficients of 88,830 M^−1 cm^−1 and 40,470 M^−1 cm^−1, respectively.
FRET-based DNA binding and inhibition assays: FRET-based that monitor the RAD52-ssDNA, RPA-ssDNA and RAD52-RPA-ssDNA binding were carried out as previously described (Hengel S R, eLife. 2016; 5; Grimme J M, et al., Nucleic Acids Res. 2010; 38(9):2917-30; and Grimme J M, Spies M. FRET-based assays to monitor DNA binding and annealing by Rad52 recombination mediator protein. Methods in molecular biology (Clifton, NJ). 2011; 745:463-83) using Cary Eclipse Spectrofluorimeter (Agilent) at 25° C., in 5 mm quartz cuvettes, and in buffer containing 30 mM Tris-Acetate (pH 7.5) and 1 mM DTT. Cy3 dye was excited at 530 nm and its emission was monitored at 565 nm. Emission of Cy5 acceptor fluorophore excited through the energy transfer from Cy3 donor is monitored at 660 nm simultaneously with emission of Cy3 dye. Both the excitation and the emission slits were set to 10 nm. All experiments were carried out using 1 nM (molecules) Cy3-dT30-Cy5 ssDNA. The optimal concentrations of the RAD52 (6 nM) and RPA (1 nM) proteins were selected by titrating the respective protein into 1 nM Cy3-dT30-Cy5 solution, and chosen based on the largest separation of the FRET values corresponding to the protein bound and free DNA.
The inhibition of the RAD52-ssDNA, RPA-ssDNA and RAD52-RPA-ssDNA complexes was evaluated by titrating each compound to the respective complex, measuring Cy3 and Cy5 fluorescence, and calculating FRET as previously described (Hengel, S. R., et al., eLife, 5).
Spectral properties of many compounds overlapped with the Cy3 and Cy5 fluorescence. To correct the calculated FRET values for the compound signal, the fluorogenic compounds were titrated into buffer and into solution of 1 nM Cy3-dT30-Cy5. For all tested compounds, the change in the signal in the Cy3 and Cy5 channels with and without Cy3/Cy5-labeled DNA present was the same. […] To account for the dye fluorescence, for each compound concentration, the apparent change in FRET of the ssDNA in the presence the compound was subtracted from the respective FRET signal of the RAD52-ssDNA, RPA-ssDNA or RAD52-ssDNA-RPA complex at the same inhibitor concentration. The IC50 values were calculated by fitting the corrected FRET data to the four-parameter dose response model using GraphPad Prism. All data are shown as average for at least three independent experiments ±standard deviation. The IC50 values are presented with their respective fitting error.

Structure (SMILES)	effect on viability/growth of BRCA2-complemented HA cells (EUFA423F HA cells; listed as Z99)	solubility [1]	effect on the RPA-ssDNA-RAD52 complex (RPA-ssDNA-RAD52 complex)	effect on viability/growth of BRCA2-complemented HA cells (EUFA423F HA cells)	fold lower IC50 for the RPA-ssDNA-RAD52 complex than for the RAD52-ssDNA complex (RPA-ssDNA-RAD52 complex; wild type RAD52)
O=C(Cn1cccc([N+](=O)[O-])c1=O)c1c[nH]c2ccccc12 [Example 1]	affected the viability; also recorded: some toxicity towards BRCA2-complemented cells	> 100 µM	yields FRET values corresponding to the free ssDNA	–	–
COc1ccccc1NS(=O)(=O)c1cc(C(=O)O)ccc1C [Example 8]	–	–	decreases the FRET values of the RPA-ssDNA-RAD52 complex	unaffected	6 fold

Source: patent US20260193227A1, “THERAPEUTIC COMPOUNDS AND METHODS” (UNIVERSITY OF IOWA RESEARCH FOUNDATION, priority 2022, published 2026)
